In patent US20090074815A1, “Immunomodulator Compounds as Vaccine Enhancers” (SCICLONE PHARMACEUTICALS, INC., priority 2005, published 2009):
Like-named read-outs stand apart in the source and are kept apart here.

Assays:
[1] = tested on: IL-4 production by ConA-stimulated splenocytes; assay: IL-4 production by ConA-stimulated splenocytes (EIA); format: in vivo, mice
[2] = tested on: leukocytes and lymphocytes in peripheral blood; assay: Concentration of leukocytes and lymphocytes in peripheral blood before and after vaccination; format: in vivo, human; details: After vaccination
[3] = Clinical manifestations of infectious syndrome (ARVI, ENT diseases, herpes, gastrointestinal, urogenital) after vaccination with SCV-07; format: in vivo, human
Text: The protocol of the placebo-controlled, randomized study of the efficacy of vaccination against viral hepatitis B was approved by the committee of ethics of the Chelyabinsk State Medical Academy. […] Diagnosis of the infectious syndrome was made in accordance with the standards of diagnostics and treatment of secondary immunodeficiencies recommended by the institute of Immunology of the Ministry of Public Health of the RF, Moscow. (R. M. Kahaitov, N. I. Iljina, L. V. and Luss et al., 2002) All subjects gave their personal consent to participate in the study and submitted a signed informed consent form.
Data on the incidence of episodes and relapses of chronic diseases for each immunocompromised subject were recorded during pre- and post vaccination periods and used to compare the immunological clinical parameters of each subject in the pre- and post vaccination periods. Chronic diseases that were tracked included diseases of the ears, nose and throat, urinary systems, genital systems and gastrointestinal tract, and diseases of the skin, hair and nails (the integumentary tissues).
Participants in the study had the following clinical manifestations of infectious syndrome: sixty-seven percent (67%) had acute respiratory viral infections (ARVI) more than four times a year; forty-nine percent (49%) had chronic inflammatory diseases of the ears, nose and throat; forty-five percent (45%) suffered from recurrent herpes viral infections; thirty percent (30%) had chronic inflammatory diseases of the gastrointestinal tract; thirty-three (33%) had recurrent infections of the skin and subcutaneous adipose cellular tissues. Study participants with the spontaneous form of secondary immunodeficiency typically had more than one chronic inflammatory disease. Seventy-one percent (71%) of the subjects with infectious syndrome had three or more different clinical manifestations of a chronic inflammatory disease. Subjects with a single clinical manifestation made up only three percent (3%) of Groups I and II.

[4] = tested on: IL-10 production by OvA-stimulated splenocytes; assay: OvA-stimulated production of IL-10 by splenocytes of OvA-immunized mice; details: for activity at 0.0001 mg/kg / activity at 0.001 mg/kg / activity at 0.01 mg/kg: Mus musculus, Splenocyte, po; for activity at 0.0001 mg/kg: 0.1 μg/kg per os; for activity at 0.001 mg/kg: 1.0 μg/kg per os; for activity at 0.01 mg/kg: 10.0 μg/kg per os
Procedure: The OvA was administered subcutaneously to the crest in a volume of 200 μl. Mice were immunized on day 1 with OvA in complete Freund's adjuvant (CFA; Sigma) and on day 15 with the antigen in incomplete Freund's adjuvant (IFA; Sigma). The immune response was analyzed on day 29. Mice were also immunized with 10 μg/mouse of OvA using Alum as an adjuvant.
Thymuses and spleens from mice of each treatment group were pooled, and then minced with scissors. The minced tissues were suspended in sterile PBS to form cell suspensions, filtered through a double gauze layer and centrifuged. Cells were washed twice with PBS, re-suspended in RPMI-1640 (Sigma) with 2.0 mM of L-glutamine, 50 μM of mercaptoethanol, and 10 μg/ml of gentamycin (complete medium); and cell counts were made. (The splenocyte suspension was washed with a 0.86% solution of NH4Cl to pre-lyse erthrocytes.)
Assessment of Mitogen- and Antigen-Induced Production of Cytokines: Thymic cells (1×10^6/well) in complete medium with 2% FCS were stimulated with ConA (0, 1, and 2 μg/ml). Splenocytes (1×10^6/well) in complete medium with 5% FCS were stimulated with ConA (0, 1, and 5 μg/ml) and with OvA (0-100 μg/ml). […] Supernatants from OvA-stimulated cultures were collected after 72 hours. Supernatants from both cultures were frozen, and kept at 20° C. Concentrations of IL-2, IL-4, IL-10, IL-12R40 and IFNγ in the supernatants were determined by solid-phase EIA with EIA Expansion Kits, available from BD Biosciences (formerly Pharmingen), in accordance with the manufacturer's instructions.

[5] = Patients of group 2 (SCV-07 + vaccine)
[6] = read-out: Production of IL-10 by splenocytes, % (% of control), OvA/Alum, OvA 0 μg/ml
[7] = read-out: Production of IL-10 by splenocytes, % (% of control), OvA/Alum, OvA 10 μg/ml
[8] = read-out: Production of IL-10 by splenocytes, % (% of control), OvA/Alum, OvA 25 μg/ml
[9] = read-out: Production of IL-10 by splenocytes, % (% of control), OvA/Alum, OvA 50 μg/ml
[10] = read-out: Production of IL-10 by splenocytes, % (% of control), OvA/Alum, OvA 100 μg/ml
[11] = read-out: Production of IL-10 by splenocytes, % (% of control), OvA/FA, OvA 0 μg/ml
[12] = read-out: Production of IL-10 by splenocytes, % (% of control), OvA/FA, OvA 10 μg/ml
[13] = read-out: Production of IL-10 by splenocytes, % (% of control), OvA/FA, OvA 25 μg/ml
[14] = read-out: Production of IL-10 by splenocytes, % (% of control), OvA/FA, OvA 50 μg/ml
[15] = read-out: Production of IL-10 by splenocytes, % (% of control), OvA/FA, OvA 100 μg/ml

N[C@H](CCC(=O)N[C@@H](Cc1c[nH]c2ccccc12)C(=O)O)C(=O)O [SCV-07, γ-D-glutamyl-L-tryptophan]
IL-4 ([1]; ConA 1 μg/ml, 0.01 μg/kg per os): 98.7 pg/mL
IL-4 ([1]; ConA 1 μg/ml, 0.1 μg/kg i/p): 62.1 pg/mL
IL-4 ([1]; ConA 1 μg/ml, 0.1 μg/kg per os): 78.9 pg/mL
IL-4 ([1]; ConA 1 μg/ml, 1.0 μg/kg i/p): 52.8 pg/mL
IL-4 ([1]; ConA 1 μg/ml, 1.0 μg/kg per os): 95.8 pg/mL
IL-4 ([1]; ConA 1 μg/ml, 10.0 μg/kg per os): 53.8 pg/mL
IL-4 ([1]; ConA 1 μg/ml, 100.0 μg/kg per os): 83.1 pg/mL
IL-4 ([1]; ConA 5 μg/ml, 0.01 μg/kg per os): 284.9 pg/mL
IL-4 ([1]; ConA 5 μg/ml, 0.1 μg/kg i/p): 277.5 pg/mL
IL-4 ([1]; ConA 5 μg/ml, 0.1 μg/kg per os): 229.6 pg/mL
IL-4 ([1]; ConA 5 μg/ml, 1.0 μg/kg i/p): 152.9 pg/mL
IL-4 ([1]; ConA 5 μg/ml, 1.0 μg/kg per os): 260.0 pg/mL
IL-4 ([1]; ConA 5 μg/ml, 10.0 μg/kg per os): 275.0 pg/mL
IL-4 ([1]; ConA 5 μg/ml, 100.0 μg/kg per os): 192.0 pg/mL
IL-4 ([1]; Spontaneous, 0.01 μg/kg per os): 6.1 pg/mL
IL-4 ([1]; Spontaneous, 0.1 μg/kg i/p): 4.2 pg/mL
IL-4 ([1]; Spontaneous, 0.1 μg/kg per os): 0.0 pg/mL
IL-4 ([1]; Spontaneous, 1.0 μg/kg i/p): 0.0 pg/mL
IL-4 ([1]; Spontaneous, 1.0 μg/kg per os): 25.3 pg/mL
IL-4 ([1]; Spontaneous, 10.0 μg/kg per os): 19.4 pg/mL
IL-4 ([1]; Spontaneous, 100.0 μg/kg per os): 27.1 pg/mL
Leukocytes × 10^9/l ([2]; Healthy subjects (Group III)): 6.04 ± 0.31 10^9/l
Lymphocytes % ([2]; Healthy subjects (Group III)): 19.05 ± 1.13%
Lymphocytes × 10^9/l ([2]; Healthy subjects (Group III)): 1.19 ± 0.11 10^9/l
Lymphocytes % [2, 5]: 27.81 ± 2.04%
Lymphocytes × 10^9/l [2, 5]: 1.608 ± 0.096 10^9/l
Leukocytes × 10^9/l ([2]; Patients of group 2 (infectious syndrome, SCV-07 1 mg i.m. + hepatitis B vaccine)): 5.938 ± 0.351 10^9/l
participants reporting herpes outbreaks one to two times during a year ([3]; after vaccination and SCV-07 (13% before)): 53%
participants with herpes infections five times a year or more ([3]; after vaccination and SCV-07 administration (40% before)): no participants
incidence of ARVI ([3]; subjects who previously reported ARVI between 5 and 9 times a year, vaccine + SCV-07): sharply reduced
participants without episodes or outbreaks of herpes ([3]; vaccinated and received SCV-07): Thirty-four
subjects with aggravated chronic ENT diseases three to four times a year who had no aggravated incidents during the first year after vaccination ([3]; vaccinated participants that received SCV-07): 35%
frequency of chronic diseases of the gastrointestinal tract and the urogenital system ([3]; vaccinated participants with infectious syndrome that received SCV-07): did not change
activity at 0.0001 mg/kg [4, 6]: 100%
activity at 0.0001 mg/kg [4, 7]: 118%
activity at 0.0001 mg/kg [4, 8]: 105%
activity at 0.0001 mg/kg [4, 9]: 132%
activity at 0.0001 mg/kg [4, 10]: 129%
activity at 0.001 mg/kg [4, 6]: 100%
activity at 0.001 mg/kg [4, 7]: 128%
activity at 0.001 mg/kg [4, 8]: 112%
activity at 0.001 mg/kg [4, 9]: 110%
activity at 0.001 mg/kg [4, 10]: 109%
activity at 0.01 mg/kg [4, 6]: 100%
activity at 0.01 mg/kg [4, 7]: 138%
activity at 0.01 mg/kg [4, 8]: 156%
activity at 0.01 mg/kg [4, 9]: 197%
activity at 0.01 mg/kg [4, 10]: 218%
activity at 0.0001 mg/kg [4, 11]: 100%
activity at 0.0001 mg/kg [4, 12]: 136%
activity at 0.0001 mg/kg [4, 13]: 210%
activity at 0.0001 mg/kg [4, 14]: 248%
activity at 0.0001 mg/kg [4, 15]: 270%
activity at 0.001 mg/kg [4, 11]: 100%
activity at 0.001 mg/kg [4, 12]: 234%
activity at 0.001 mg/kg [4, 13]: 241%
activity at 0.001 mg/kg [4, 14]: 275%
activity at 0.001 mg/kg [4, 15]: 317%
activity at 0.01 mg/kg [4, 11]: 100%
activity at 0.01 mg/kg [4, 12]: 133%
activity at 0.01 mg/kg [4, 13]: 174%
activity at 0.01 mg/kg [4, 14]: 216%
activity at 0.01 mg/kg [4, 15]: 250%
Production of IL-10 by splenocytes ([4]; OvA/Alum, 0.1 μg/kg i/p, OvA 0 μg/ml): 2177.8 pg/mL
